Measurements from ChEMBL document CHEMBL1156143, “Structure-activity relationship studies of chalcone leading to 3-hydroxy-4,3',4',5'-tetramethoxychalcone and its analogues as potent nuclear factor kappaB inhibitors and their anticancer activities” (J Med Chem, 2009).
Active and inactive are the calls of the source. The rule behind the calls is not given here.

Columns and labels:
NCI-H2009 [1] = test: Cytotoxicity against human NCI-H2009 cells after 48 hrs by fluorescence assay; type: functional; details: NCI-H2009, 48 h
A549 = test: Cytotoxicity against human A549 cells after 48 hrs by fluorescence assay; type: functional; details: A549, 48 h
[2] = Inhibition of TNFalpha induced NF-kappaB activation in human A549 cells by luciferase reporter gene assay; type: cell-based
Mus musculus [3] = test: Toxicity in SCID mouse xenografted with human NCI-H2009 cells assessed as necropsy at 1 mg/day, ip treated 6 days in a week for 5 weeks; type: organism-based; details: in vivo
[4] = biological target: Proto-oncogene tyrosine-protein kinase Src (Homo sapiens) (UniProt P12931); test: Inhibition of c-Src at 10 uM
Sequence of Proto-oncogene tyrosine-protein kinase Src (Homo sapiens) (P12931 2-536 limits assumed): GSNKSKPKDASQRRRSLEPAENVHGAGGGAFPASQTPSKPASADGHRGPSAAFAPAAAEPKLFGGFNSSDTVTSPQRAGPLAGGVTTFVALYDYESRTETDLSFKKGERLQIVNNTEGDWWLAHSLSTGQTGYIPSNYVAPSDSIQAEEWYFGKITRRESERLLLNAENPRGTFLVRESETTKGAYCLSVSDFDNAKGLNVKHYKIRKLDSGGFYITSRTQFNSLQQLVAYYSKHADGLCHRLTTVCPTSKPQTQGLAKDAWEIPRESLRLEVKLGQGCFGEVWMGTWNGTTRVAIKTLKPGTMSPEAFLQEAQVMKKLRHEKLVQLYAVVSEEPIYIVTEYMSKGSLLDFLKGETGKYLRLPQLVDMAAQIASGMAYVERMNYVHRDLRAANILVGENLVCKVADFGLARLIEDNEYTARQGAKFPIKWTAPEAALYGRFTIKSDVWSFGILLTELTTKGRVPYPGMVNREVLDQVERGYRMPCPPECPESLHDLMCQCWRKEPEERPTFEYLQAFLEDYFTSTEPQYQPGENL

Mus musculus [5] = test: Toxicity in SCID mouse xenografted with human NCI-H2009 cells assessed as increase in body weight at 1 mg/day, ip treated 6 days in a week for 5 weeks; type: organism-based; details: in vivo
[6] = biological target: T1, Inhibitor of nuclear factor kappa-B kinase subunit alpha (Homo sapiens) (UniProt O15111); test: Inhibition of IKKalpha at 10 uM
T1 sequence (whole entry): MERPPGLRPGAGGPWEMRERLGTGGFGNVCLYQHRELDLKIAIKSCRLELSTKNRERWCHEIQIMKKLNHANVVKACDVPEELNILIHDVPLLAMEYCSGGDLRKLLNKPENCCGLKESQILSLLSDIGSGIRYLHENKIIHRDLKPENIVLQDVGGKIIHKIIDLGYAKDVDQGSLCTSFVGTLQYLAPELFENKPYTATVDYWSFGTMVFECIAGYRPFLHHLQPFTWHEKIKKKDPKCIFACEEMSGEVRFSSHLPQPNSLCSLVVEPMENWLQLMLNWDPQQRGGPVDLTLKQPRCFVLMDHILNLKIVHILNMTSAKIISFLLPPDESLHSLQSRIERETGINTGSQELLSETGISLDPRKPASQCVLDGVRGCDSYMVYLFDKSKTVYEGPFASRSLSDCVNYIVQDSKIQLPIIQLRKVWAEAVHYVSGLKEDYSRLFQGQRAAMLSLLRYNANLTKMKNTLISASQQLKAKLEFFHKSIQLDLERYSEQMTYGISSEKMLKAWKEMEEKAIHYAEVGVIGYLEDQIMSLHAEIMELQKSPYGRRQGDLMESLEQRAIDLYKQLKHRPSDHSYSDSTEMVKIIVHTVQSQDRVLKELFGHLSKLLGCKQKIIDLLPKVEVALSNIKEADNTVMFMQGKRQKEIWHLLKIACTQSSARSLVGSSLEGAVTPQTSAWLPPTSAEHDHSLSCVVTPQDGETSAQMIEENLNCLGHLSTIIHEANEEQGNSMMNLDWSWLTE

[7] = biological target: Interleukin-1 receptor-associated kinase 1 (Homo sapiens) (UniProt P51617); test: Inhibition of IRAK1 at 10 uM
Sequence of Interleukin-1 receptor-associated kinase 1 (Homo sapiens) (P51617 whole entry, looked up): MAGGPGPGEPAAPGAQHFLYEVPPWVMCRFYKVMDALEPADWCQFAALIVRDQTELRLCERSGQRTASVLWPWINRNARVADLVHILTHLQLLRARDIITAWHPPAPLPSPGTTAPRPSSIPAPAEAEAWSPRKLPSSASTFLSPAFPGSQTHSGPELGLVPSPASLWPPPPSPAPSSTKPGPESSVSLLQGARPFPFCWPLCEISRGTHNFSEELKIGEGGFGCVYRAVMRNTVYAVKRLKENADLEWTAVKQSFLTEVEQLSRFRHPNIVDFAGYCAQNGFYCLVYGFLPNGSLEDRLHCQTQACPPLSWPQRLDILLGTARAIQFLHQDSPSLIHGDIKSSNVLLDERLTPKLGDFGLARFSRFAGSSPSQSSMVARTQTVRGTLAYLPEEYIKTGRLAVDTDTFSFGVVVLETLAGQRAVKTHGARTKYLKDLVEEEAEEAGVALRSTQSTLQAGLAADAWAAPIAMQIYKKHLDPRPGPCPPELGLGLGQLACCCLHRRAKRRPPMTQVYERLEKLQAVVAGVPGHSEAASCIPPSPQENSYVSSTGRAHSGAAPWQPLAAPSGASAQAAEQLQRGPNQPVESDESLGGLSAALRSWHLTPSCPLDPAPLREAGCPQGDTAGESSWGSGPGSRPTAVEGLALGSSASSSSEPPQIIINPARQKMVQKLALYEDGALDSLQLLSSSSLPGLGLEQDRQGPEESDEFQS

[8] = biological target: T2, Inhibitor of nuclear factor kappa-B kinase subunit beta (Homo sapiens) (UniProt O14920); test: Inhibition of IKK-beta at 10 uM
T2 sequence (whole entry): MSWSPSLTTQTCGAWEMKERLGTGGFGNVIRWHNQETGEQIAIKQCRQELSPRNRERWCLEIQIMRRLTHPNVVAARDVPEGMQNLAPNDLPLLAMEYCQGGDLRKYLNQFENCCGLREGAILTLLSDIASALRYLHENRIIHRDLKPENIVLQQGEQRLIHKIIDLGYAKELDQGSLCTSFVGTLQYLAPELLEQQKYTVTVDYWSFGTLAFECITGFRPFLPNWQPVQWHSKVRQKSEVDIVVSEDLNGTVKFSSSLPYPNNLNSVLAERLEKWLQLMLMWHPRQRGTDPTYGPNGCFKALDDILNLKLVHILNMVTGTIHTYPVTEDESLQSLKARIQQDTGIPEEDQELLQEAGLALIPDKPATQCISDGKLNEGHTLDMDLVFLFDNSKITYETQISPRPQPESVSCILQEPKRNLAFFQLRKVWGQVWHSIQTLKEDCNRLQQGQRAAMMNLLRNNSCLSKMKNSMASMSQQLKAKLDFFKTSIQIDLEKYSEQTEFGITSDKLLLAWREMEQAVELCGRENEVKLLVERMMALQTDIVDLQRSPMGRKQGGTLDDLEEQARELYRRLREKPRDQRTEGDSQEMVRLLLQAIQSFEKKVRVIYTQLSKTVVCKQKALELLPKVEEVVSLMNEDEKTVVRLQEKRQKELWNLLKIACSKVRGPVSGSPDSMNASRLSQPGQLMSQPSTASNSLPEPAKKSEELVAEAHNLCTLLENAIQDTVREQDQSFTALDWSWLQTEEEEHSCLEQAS

NCI-H2009 [9] = test: Anticancer activity against human NCI-H2009 cells xenografted in SCID mouse assessed as suppression of tumor growth at 1 mg/day, ip treated 6 days in a week for 5 weeks; type: functional
[10] = biological target: Mitogen-activated protein kinase kinase kinase 7 (TAK1) (Homo sapiens) (UniProt O43318); test: Inhibition of TAK1 at 10 uM
Sequence of Mitogen-activated protein kinase kinase kinase 7 (TAK1) (Homo sapiens) (O43318 whole entry, looked up): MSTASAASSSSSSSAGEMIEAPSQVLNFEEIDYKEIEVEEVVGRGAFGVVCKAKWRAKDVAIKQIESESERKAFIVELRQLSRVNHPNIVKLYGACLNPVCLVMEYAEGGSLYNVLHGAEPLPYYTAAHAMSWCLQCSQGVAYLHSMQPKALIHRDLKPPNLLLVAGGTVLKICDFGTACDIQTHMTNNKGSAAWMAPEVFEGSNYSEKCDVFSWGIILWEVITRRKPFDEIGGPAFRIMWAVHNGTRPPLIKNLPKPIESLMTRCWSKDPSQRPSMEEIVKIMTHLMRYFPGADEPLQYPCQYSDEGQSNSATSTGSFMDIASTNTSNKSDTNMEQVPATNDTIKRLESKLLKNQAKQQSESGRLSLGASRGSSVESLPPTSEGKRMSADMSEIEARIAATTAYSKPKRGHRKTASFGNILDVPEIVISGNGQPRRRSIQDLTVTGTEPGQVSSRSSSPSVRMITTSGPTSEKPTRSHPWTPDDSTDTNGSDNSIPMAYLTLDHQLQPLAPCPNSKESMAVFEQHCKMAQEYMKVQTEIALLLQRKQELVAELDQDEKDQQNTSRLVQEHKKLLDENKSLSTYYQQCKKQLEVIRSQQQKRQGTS

[11] = biological target: T3, Interleukin-1 receptor-associated kinase 4 (Homo sapiens) (UniProt Q9NWZ3); test: Inhibition of IRAK4 at 10 uM
T3 sequence (whole entry): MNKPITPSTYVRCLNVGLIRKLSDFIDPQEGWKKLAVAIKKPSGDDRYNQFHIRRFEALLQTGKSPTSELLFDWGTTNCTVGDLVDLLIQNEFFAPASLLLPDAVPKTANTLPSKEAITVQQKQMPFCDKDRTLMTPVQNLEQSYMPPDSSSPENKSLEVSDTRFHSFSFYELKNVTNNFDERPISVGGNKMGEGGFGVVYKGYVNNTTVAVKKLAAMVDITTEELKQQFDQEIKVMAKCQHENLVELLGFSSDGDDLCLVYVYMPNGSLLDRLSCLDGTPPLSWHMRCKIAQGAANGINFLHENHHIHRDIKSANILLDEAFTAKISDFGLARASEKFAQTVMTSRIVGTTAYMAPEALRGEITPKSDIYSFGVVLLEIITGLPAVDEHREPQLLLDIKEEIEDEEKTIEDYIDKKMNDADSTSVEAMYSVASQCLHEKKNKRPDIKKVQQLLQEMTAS

Mus musculus [12] = test: Toxicity in SCID mouse xenografted with human NCI-H2009 cells at 1 mg/day, ip treated 6 days in a week for 5 weeks; type: organism-based; details: in vivo

SMILES	IC50 [2] [µM]	GI50 (NCI-H2009 [1]) [µM]	GI50 (A549) [µM]	further results
COc1cc(O)c(C(=O)/C=C/c2ccccc2)c(OC)c1 [FLAVOKAWAIN B]	> 20			
COc1cc(O)c(C(=O)/C=C/c2ccc(F)cc2)c(OC)c1	> 20			
COc1cc(O)c(C(=O)/C=C/c2ccccc2C)c(OC)c1	> 20			
COc1ccc(/C=C/C(=O)c2cc(OC)c(OC)c(OC)c2)cc1	19.3	8.4	12.4	
COc1cc(O)c(C(=O)/C=C/c2cc(OC)c(OC)c(OC)c2)c(OC)c1	> 20			
O=C(/C=C/c1ccccc1)c1ccc(F)cc1	> 20			
Cc1ccc(C(=O)/C=C/c2ccccc2)cc1	> 20			
O=C(/C=C/c1ccccc1)c1ccc(C(F)(F)F)cc1	> 20			
O=C(/C=C/c1ccc(O)cc1)c1ccc(O)cc1O [ISOLIQUIRITIGENIN]	> 20			
COc1cc(O)c(C(=O)/C=C/c2ccc(OC)c(O)c2)c(OC)c1	> 20			
COc1ccc(CCC(=O)c2cc(OC)c(OC)c(OC)c2)cc1O	> 20	47	17.6	
COc1cc(O)c(C(=O)/C=C/c2ccc(Cl)cc2)c(OC)c1	> 20			
COc1cc(O)c(C(=O)/C=C/c2ccccc2Br)c(OC)c1	> 20			
O=C(/C=C/c1ccc(O)c(O)c1)c1ccc(O)cc1O [BUTEIN]	> 20			
O=C(/C=C/c1ccccc1)c1ccccc1 [CHALCONE]	> 20			
CCCOc1ccc(/C=C/C(=O)c2c(O)cc(OC)cc2OC)cc1	> 20			
O=C(/C=C/c1ccccc1)c1ccccc1O [2'-HYDROXYCHALCONE]	> 20			
COc1ccc(/C=C/C(=O)c2c(O)cc(OC)cc2OC)cc1 [FLAVOKAWAIN A]	> 20			
O=C(/C=C/c1ccc(O)cc1)c1ccccc1 [4-HYDROXYCHALCONE]	> 20			
COc1cc(O)c(C(=O)/C=C/c2ccc(OC)c(C)c2)c(OC)c1	> 20			
O=C(/C=C/c1ccccc1)c1ccc(F)c(F)c1	> 20			

These reach a lower IC50 [2]. Values come first.

IC50 [2] [µM]	SMILES	GI50 (NCI-H2009 [1]) [µM]	GI50 (A549) [µM]	further results
1.9	COc1cc(C(=O)/C=C/c2ccc(O)c(O)c2)cc(OC)c1OC	1.1	2.6	
5.9	COc1ccc(/C=C/C(=O)c2cc(OC)c(OC)c(OC)c2)cc1OCCN	3.6	5.6	
2.3	COc1cc(C(=O)/C=C/c2cccc(O)c2)cc(OC)c1OC	4.2	1.7	
8.9	COc1cc(C(=O)/C=C/c2ccccc2)cc(OC)c1OC	6.6	8.8	
8	COc1ccc(/C=C/C(=O)c2ccc(OC)c(OC)c2)cc1O	4.6	5.2	
17	COc1cc(O)c(C(=O)/C=C/c2cccc(C)c2)c(OC)c1			
11.6	COc1cc(C(=O)/C=C/c2ccc(O)cc2)cc(OC)c1OC	4.5	8.5	
5.1	COc1ccc(/C=C/C(=O)c2cc(OC)c(OC)c(OC)c2)cc1O	5.2	2.1	Activity (Mus musculus [3]): Non-toxic; inhibition [4]: inactive; Activity (Mus musculus [5]): Non-toxic; inhibition [6]: inactive; inhibition [7]: inactive; inhibition [8]: 46%; Activity (NCI-H2009 [9]): 57%; inhibition [10]: inactive; inhibition [11]: 41%; Activity (Mus musculus [12]): Non-toxic
14.7	COc1ccc(/C=C/C(=O)c2cc(OC)c(O)c(OC)c2)cc1O	7.5	4	
8.1	COc1cc(OC)cc(C(=O)/C=C/c2ccc(OC)c(O)c2)c1	2.3	3.3	
12.3	COc1cc(O)c(C(=O)/C=C/c2cccc(Br)c2)c(OC)c1			
9.1	COc1ccc(/C=C/C(=O)c2cc(OC)c(OC)c(OC)c2)cc1OCCO	3.3	4.7	
